The values below come from patent US7517889B2, “2,6-substituted-4-monosubstitutedamino-pyrimidine as prostaglandin D2 receptor antagonists” (Aventis Pharmaceuticals, Inc., priority 2004, dated 2009).

The target of the experiment is T1, DP receptor (Homo sapiens, UniProt Q13258).
T1 construct: the human cell line LS174T, which expresses the endogenous DP receptor; endogenous in cells; host or cells: LS174T human cell line
T1 sequence (Q13258 1-359): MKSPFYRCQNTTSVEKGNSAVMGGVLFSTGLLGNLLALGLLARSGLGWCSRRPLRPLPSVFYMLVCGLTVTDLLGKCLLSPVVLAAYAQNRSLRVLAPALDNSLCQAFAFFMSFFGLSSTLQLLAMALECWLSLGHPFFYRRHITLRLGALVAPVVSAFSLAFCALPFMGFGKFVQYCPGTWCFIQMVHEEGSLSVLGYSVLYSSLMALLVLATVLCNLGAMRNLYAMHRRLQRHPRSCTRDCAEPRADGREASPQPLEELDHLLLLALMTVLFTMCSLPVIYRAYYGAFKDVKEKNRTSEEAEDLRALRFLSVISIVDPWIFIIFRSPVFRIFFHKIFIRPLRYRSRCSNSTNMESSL
The experiment can be described thus: SPA cAMP assay in human LS174 T cells (human DP functional assay). To be noted: inhibition of PGD2 (15 nM final) stimulated cAMP, LS174T cells expressing endogenous DP receptor. The format is cell-based. The method, then:
The inhibitory effects of the compounds according to the invention are assessed in a human DP functional assay. A cAMP assay is employed using the human cell line LS174T, which expresses the endogenous DP receptor.
Protocol for SPA cAMP Assay in Human LS174 T Cells
• 1) Add equal volumes of tracer, antiserum and SPA anti-rabbit reagent to a bottle, ensuring that a sufficient volume of this mixture is prepared for the desired number of wells (150 μL/well). • 2) Mix thoroughly. • 3) This immunoreagent solution should be freshly prepared before each assay and not re-used.
Add 50 μL of […] IBMX into 100 mL PBS to make a final concentration of 100 μM and sonicate at 30° C. for 20 minutes.
Before each assay, it is freshly prepared. Add 3 μL of 10 mM stock solution to 20 mL DMSO, mix it thoroughly, and transfer 10 mL to 40 mL PBS.
Compound dilution is carried out in Biomex 2000 (Beckman) using Method 1_cAMP DP 11 points.
5 μL of each compound from the 10 mM stock compound plates is transferred to the wells of a 96-well plate respectively as below.
Fill the plate with 45 μL of DMSO except column 7 is filled with 28 μL DMSO. Pipette column 1 thoroughly, and transfer 12 μL into column 7 parallel. Perform 1:10 serial dilution from column 1 to column 6 and from column 7 to column 11 by transfer 5 μL to 45 μL DMSO to make following concentrations:
Fill a new 96-well plate with 247.5 μL of compound dilution buffer. Transfer 2.5 μL of serially diluted compounds from above plate to the new plate (1:100 dilution) as following:
Cell Growth • 1. […] Remove growth medium from cells. Cells in T165 flask are washed twice with 4 mL Trypsin followed by incubation at 37° C. and 5% CO2 for 3 minutes. • 4. Add 10 mL of medium and pipette thoroughly to separate the cells and count the cells. • 5. […] Assay Procedure Day 1 • Seed 45,000 cells/well in 200 μL medium in 96-well plates. Incubate the cell plate at 37° C., 5% CO2 and 95% humidity overnight. Day 2 • 1. Perform compound dilution. • 2. Prepare assay buffer, lysis buffer 1 & 2, PGD2 and standard. • 3. Aspirate media from the cells and add 100 μL of compound solution using Zymark Sciclone-ALH/FD protocol cAMP DP. • 4. Incubate the cells at 37° C., 5% CO2 and 95% humidity for 15 minutes. • 5. […] Aspirate media from the cells and add 50 μL of lysis buffer 1 using Zymark protocol cAMP DP lysis, and incubate at room temperature with shaking for 30 minutes. • 7. Add 150 μL immunoreagent to all wells (a total volume of 200 μL/well). • 8. Seal the plates and shake for 2 minutes, put into the chamber of the Wallac microtitre plate μ scintillation counter for 16 hours. […] Data Processing Set up standard curve of cAMP versus CPM.
The cAMP concentrations (pmol/mL) of unknown samples are calculated from a standard curve of cAMP versus CPM. % inhibition is calculated using the following formula: […]
On the technique in general: Changes in cAMP serve as a functional read-out for many G protein-coupled receptors.

pIC50: −log10 of the molar value. Structures can show the parent of a compound that is named as a salt.

The term pIC50 denotes the negative decadic logarithm of the IC50, by convention in mol/L. `COc1ccc(CCNc2cc(-c3cccc(S(N)(=O)=O)c3)nc(OC)n2)cc1` [Example 3, 3-{2-Methoxy-6-[2-(4-methoxy-phenyl)-ethylamino]-pyrimidin-4-yl}-benzenesulfonamide] showed a pIC50 of 8.54. Molecule `CCNS(=O)(=O)c1cccc(-c2cc(NCCc3ccc(OC)cc3)nc(OC)n2)c1` [Example 4(b), N-Ethyl-3-{2-methoxy-6-[2-(4-methoxy-phenyl)-ethylamino]-pyrimidin-4-yl}-benzenesulfonamide] showed a pIC50 of 8.18. To `COc1nc(NCCc2ccc(OC(F)(F)F)cc2)cc(-c2cccc(N)c2)n1` [Example 5, [6-(3-amino-phenyl)-2-methoxy-pyrimidin-4-yl]-[2-(4-trifluoromethoxy-phenyl)-ethyl]-amine] belongs 8.02; to `COc1nc(NCCc2ccc(OC(F)(F)F)cc2)cc(-c2cccc(NC(C)=O)c2)n1` [Example 6(a), N-(3-{2-Methoxy-6-[2-(4-trifluoromethoxy-phenyl)-ethylamino]-pyrimidin-4-yl}phenyl)-acetamide], 8.32; to `COc1nc(NCCc2ccc(F)cc2F)cc(-c2cccc(C(=O)O)c2)n1` [Example 7, 3-{6-[2-(2,4-Difluoro-phenyl)-ethylamino]-2-methoxy-pyrimidin-4-yl}-benzoic acid], 9.10. Next, `COc1ccc(CCNc2cc(-c3ccc(C(=O)O)s3)nc(OC)n2)cc1` [Example 8(a), 5-{2-Methoxy-6-[2-(4-methoxy-phenyl)-ethylamino]-pyrimidin-4-yl}-thiophene-2-carboxylic acid trifluoroacetate]: 9.48.

For the molecule `COc1ccc(CCNc2cc(-c3ccc(C=O)s3)nc(OC)n2)cc1` [Example 8(b), 5-{2-methoxy-6-[2-(4-methoxy-phenyl)-ethylamino]-pyrimidin-4-yl}-thiophene-2-carbaldehyde], the pIC50 was 9.22. To `COc1ccc(CCNc2cc(-c3c(C)noc3C)nc(OC)n2)cc1` [Example 8(d), [6-(3,5-Dimethyl-isoxazol-4-yl)-2-methoxy-pyrimidin-4-yl]-[2-(4-methoxy-phenyl)-ethyl]-amine] belongs 8.72; to `COc1ccc(CCNc2cc(-c3ccc(C)s3)nc(OC)n2)cc1` [Example 8(e), [2-Methoxy-6-(5-methyl-thiophen-2-yl)-pyrimidin-4-yl]-[2-(4-methoxy-phenyl)-ethyl]-amine], 8.09. To `COc1ccc(CCNc2cc(-c3cn[nH]c3)nc(OC)n2)cc1` [Example 8(f), [2-(4-Methoxy-phenyl)-ethyl]-[2-methoxy-6-(1H-pyrazol-4-yl)-pyrimidin-4-yl]-amine] belongs 7.59; to `COc1ccc(CCNc2cc(-c3cccc4cnccc34)nc(OC)n2)cc1` [Example 8(g), (6-Isoquinolin-5-yl-2-methoxy-pyrimidin-4-yl)-[2-(4-methoxy-phenyl)-ethyl]-amine], 7.19; to `COc1ccc(CCNc2cc(-c3ccc(CO)s3)nc(OC)n2)cc1` [Example 9(a), (5-{2-Methoxy-6-[2-(4-methoxy-phenyl)-ethylamino]-pyrimidin-4-yl}-thiophen-2-yl)-methanol], 9.26.

Regarding `COc1ccc(CCNc2cc(-c3ccsc3CO)nc(OC)n2)cc1` [Example 9(b), (3-{2-Methoxy-6-[2-(4-methoxy-phenyl)-ethylamino]-pyrimidin-4-yl}-thiophen-2-yl)-methanol], the pIC50 was 8.77.

`COc1nc(NCCc2c(F)cccc2Cl)cc(-c2cccc(CO)c2)n1` [Example 9(d), (3-{6-[2-(2-chloro-6-fluoro-phenyl)-ethylamino]-2-methoxy-pyrimidin-4-yl}-phenyl)-methanol] gave a pIC50 of 8.62. To `COc1ccc(CCNc2cc(-c3ccc(N(C)C)cc3)nc(OC)n2)cc1` [Example 10(I)] belongs 7.38; to `COc1ccc(CCNc2cc(-c3ccc4ncccc4c3)nc(OC)n2)cc1` [Example 10(a), [2-(4-Methoxy-phenyl)-ethyl]-(2-methoxy-6-quinolin-6-yl-pyrimidin-4-yl)-amine], 9.22.
